Laboratory results taken from ChEMBL document CHEMBL1142401, “QSAR modeling of the rodent carcinogenicity of nitrocompounds” (2008).

Organism: Rattus norvegicus
Experiment: Anticarcinogenic activity in rat assessed as induction of tumors per day
Assay type: functional

## Nc1nnc(-c2ccc([N+](=O)[O-])o2)s1
  TD50: 3.12 µmol/kg
  pTD50: 0.494

## O=[N+]([O-])c1cccc2cccnc12
  TD50: 54.836 µmol/kg
  pTD50: 1.739

## O=[N+]([O-])c1ccc(-c2nc(N3CCOCC3)c3ccccc3n2)s1
  TD50: 14.692 µmol/kg
  pTD50: 1.167

## CC(=O)Nc1nc(-c2ccc([N+](=O)[O-])o2)cs1
  TD50: 28.63 µmol/kg
  pTD50: 1.457

## O=[N+]([O-])c1ccc(-c2nnc(O)o2)o1
  TD50: 43.682 µmol/kg
  pTD50: 1.64

## O=C1NC(c2ccc([N+](=O)[O-])s2)Nc2ccccc21 (stereo not drawn)
  TD50: 5.558 µmol/kg
  pTD50: 0.745

## O=[N+]([O-])c1ccc(-c2cnc3ccccn23)o1
  TD50: 68.938 µmol/kg
  pTD50: 1.838

## CC(C)=NNc1nc(-c2ccc([N+](=O)[O-])o2)cs1
  TD50: 22.721 µmol/kg
  pTD50: 1.356

## Nc1nc(-c2ccc([N+](=O)[O-])o2)cs1
  TD50: 27.699 µmol/kg
  pTD50: 1.442

## NC(=O)/C(=C\c1ccc([N+](=O)[O-])o1)c1ccco1
  TD50: 45.932 µmol/kg
  pTD50: 1.662

## CC(=O)Nc1nc(NC(C)=O)nc(-c2ccc([N+](=O)[O-])o2)n1
  TD50: 41.798 µmol/kg
  pTD50: 1.621

## CC(C)(C)c1cc([N+](=O)[O-])cc([N+](=O)[O-])c1OS(C)(=O)=O
  TD50: 8.357 µmol/kg
  pTD50: 0.922

## Cc1cc(C)nc(-c2ccc([N+](=O)[O-])o2)n1
  TD50: 11.907 µmol/kg
  pTD50: 1.076

## CC(=O)Nc1nnc(-c2ccc([N+](=O)[O-])o2)s1
  TD50: 34.773 µmol/kg
  pTD50: 1.541

## CC(=O)NCc1nc(-c2ccc([N+](=O)[O-])o2)no1
  TD50: 20.62 µmol/kg
  pTD50: 1.314

## CC(C)[N+](=O)[O-]
  TD50: 3288.692 µmol/kg
  pTD50: 3.517

## CN(C)C/N=c1\[nH]nc(/C=C/c2ccc([N+](=O)[O-])o2)o1
  TD50: 73.052 µmol/kg
  pTD50: 1.864

## NNc1nc(-c2ccc([N+](=O)[O-])o2)cs1
  TD50: 12.51 µmol/kg
  pTD50: 1.097

## CN(C)Nc1nc(-c2ccc([N+](=O)[O-])o2)cs1
  TD50: 1.538 µmol/kg
  pTD50: 0.187

## Nc1nc(N)nc(-c2ccc([N+](=O)[O-])o2)n1
  TD50: 7.697 µmol/kg
  pTD50: 0.886

## CC(=O)OC(OC(C)=O)c1ccc([N+](=O)[O-])o1
  TD50: 431.796 µmol/kg
  pTD50: 2.635

## O=[N+]([O-])c1ccc(-c2nc(NCCO)c3ccccc3n2)s1
  TD50: 12.139 µmol/kg
  pTD50: 1.084

## COc1c(Cl)c(Cl)c([N+](=O)[O-])c(Cl)c1Cl
  TD50: 65.65 µmol/kg
  pTD50: 1.82

## O=C(Nc1nc(-c2ccc([N+](=O)[O-])o2)cs1)C(F)(F)F
  TD50: 18.164 µmol/kg
  pTD50: 1.259

## Nc1ncc([N+](=O)[O-])s1
  TD50: 223.922 µmol/kg
  pTD50: 2.35

## O=[N+]([O-])c1ccc2c3c(cccc13)CC2
  TD50: 30.02 µmol/kg
  pTD50: 1.48

## Nc1nnc(-c2ccc([N+](=O)[O-])o2)o1
  TD50: 13.971 µmol/kg
  pTD50: 1.145

## Cl.O=C1OC(CN2CCOCC2)CN1/N=C/c1ccc([N+](=O)[O-])o1 (stereo not drawn)
  TD50: 8.665 µmol/kg
  pTD50: 0.938

## NNc1nc(-c2ccc([N+](=O)[O-])cc2)cs1
  TD50: 3.145 µmol/kg
  pTD50: 0.498

## O=CNc1nc(-c2ccc([N+](=O)[O-])o2)cs1
  TD50: 21.195 µmol/kg
  pTD50: 1.326

## N/C(=N\O)c1ccc([N+](=O)[O-])o1
  TD50: 245.455 µmol/kg
  pTD50: 2.39

## O=[N+]([O-])c1ccc2ccc3cccc4ccc1c2c34 [1-NITROPYRENE]
  TD50: 13.468 µmol/kg
  pTD50: 1.129

## COc1ccccc1[N+](=O)[O-] [2-NITROANISOLE]
  TD50: 69.87 µmol/kg
  pTD50: 1.84

## Nc1ccc([N+](=O)[O-])cc1 [4-NITROANILINE]
  TD50: 65.521 µmol/kg
  pTD50: 1.816

## Cn1cnc([N+](=O)[O-])c1Sc1ncnc2[nH]cnc12 [AZATHIOPRINE]
  TD50: 36.428 µmol/kg
  pTD50: 1.561

## O=C(N[C@H](CO)[C@H](O)c1ccc([N+](=O)[O-])cc1)C(Cl)Cl [CHLORAMPHENICOL]
  TD50: 860.336 µmol/kg
  pTD50: 2.935

## Cc1ncc([N+](=O)[O-])n1C [DIMETRIDAZOLE]
  TD50: 120.458 µmol/kg
  pTD50: 2.081

## CNc1ccc(N(CCO)CCO)cc1[N+](=O)[O-] [HC BLUE NO. 1]
  TD50: 1680.55 µmol/kg
  pTD50: 3.23

## Cc1ncc([N+](=O)[O-])n1CCO [METRONIDAZOLE]
  TD50: 356.989 µmol/kg
  pTD50: 2.553

## O=C1NCCN1/N=C/c1ccc([N+](=O)[O-])o1 [NIFURADENE]
  TD50: 23.646 µmol/kg
  pTD50: 1.37

## CC1CN(/N=C/c2ccc([N+](=O)[O-])o2)C(=O)N1 (stereo not drawn) [NIFURIMIDE]
  TD50: 22.418 µmol/kg
  pTD50: 1.351

## O=CNNc1nc(-c2ccc([N+](=O)[O-])o2)cs1 [NIFURTHIAZOLE]
  TD50: 13.925 µmol/kg
  pTD50: 1.144

## CCNC(=O)Nc1ncc([N+](=O)[O-])s1 [NITHIAZIDE]
  TD50: 605.88 µmol/kg
  pTD50: 2.78

## O=[N+]([O-])c1ccccc1 [NITROBENZENE]
  TD50: 47.681 µmol/kg
  pTD50: 1.678

## CC[N+](=O)[O-] [NITROETHANE]
  TD50: 29174.093 µmol/kg
  pTD50: 4.465

## O=C1CN(/N=C/c2ccc([N+](=O)[O-])o2)C(=O)N1 [NITROFURANTOIN]
  TD50: 228.001 µmol/kg
  pTD50: 2.358

## NC(=O)N/N=C/c1ccc([N+](=O)[O-])o1 [NITROFURAZONE]
  TD50: 32.907 µmol/kg
  pTD50: 1.517

## O=[N+]([O-])OCC(CO[N+](=O)[O-])O[N+](=O)[O-] [NITROGLYCERIN]
  TD50: 1448.787 µmol/kg
  pTD50: 3.161

## CCCN(CCC)c1c([N+](=O)[O-])cc(C(F)(F)F)cc1[N+](=O)[O-] [TRIFLURALIN]
  TD50: 17567.456 µmol/kg
  pTD50: 4.245
